Laboratory results taken from US20250313533A1, “QUINOLINE CARBOXYLIC ACID ESTER COMPOUND AND PREPARATION METHOD AND USE THEREOF” (priority 2019, published 2025).

Legend:
bacterial blight in rice = assay: whole plant or invertebrate; conditions: Oryza sativa, read-out: efficacy against bacterial blight in rice
[1] = system: pathogenic bacteria causing stem rot in sweet potatoes; assay: In vitro bactericidal activity, stem rot in sweet potatoes; assay type: cell-based, dikia; conditions: read-out: inhibitory rate; for inhibition at 1 ppm: dosage 1 ppm; for inhibition at 5 ppm: dosage 5 ppm
Protocol: (§1) Under aseptic conditions, equal amounts of NB culture medium were added to test tubes, and fixed amounts of the sample solutions were pipetted into the above test tubes in an ascending order of concentrations, respectively. The mixtures were well mixed and added with equal amounts of a bacterial suspension in log phase.
(§2) Each step of the procedure was repeated 4 times. After mixing, the mixture samples were incubated in the dark in a shaking incubator at 25° C. The OD values were measured when the bacteria were in log phase.

[2] = system: pathogenic bacteria causing bacterial wilt in cassava; assay: organism not typed; assay type: cell-based; conditions: read-out: inhibitory rate
[3] = system: pathogenic bacteria causing fruit blotch in watermelons; assay: In vitro bactericidal activity, fruit blotch in watermelons; assay type: cell-based, acidovorax; conditions: read-out: inhibitory rate; for inhibition at 1 ppm: dosage 1 ppm; for inhibition at 5 ppm: dosage 5 ppm
Protocol: as §1, §2

[4] = system: pathogenic bacteria causing bacterial wilt in tobacco; assay: whole plant or invertebrate; assay type: cell-based, ralstonia; conditions: read-out: inhibitory rate
[5] = system: pathogenic bacteria causing fire blight in pears; assay: In vitro bactericidal activity, fire blight in pears; assay type: cell-based, erwinia; conditions: Erwinia, read-out: inhibitory rate; for inhibition at 1 ppm: dosage 1 ppm; for inhibition at 5 ppm: dosage 5 ppm
Protocol: as §1, §2

cucumber seedlings = assay: Safety for plant growth after application; assay type: in vivo; conditions: dosage 200 ppm
Description: Taking indoor potted cucumber seedlings as an example, the influence of the compound disclosed herein on growth rate of plant height, chlorophyll content, leaf area, etc. of crops was mainly evaluated.
The results of safety and health-care effect of the compounds of the present disclosure on cucumber seedlings are shown in the following table 1: […]

[6] = system: bacterial wilt in tobacco; assay: whole plant or invertebrate; conditions: Nicotiana tabacum, read-out: efficacy against bacterial wilt in tobacco
[7] = system: pathogenic bacteria causing black shank in potatoes; assay: In vitro bactericidal activity, black shank in potatoes; assay type: cell-based; conditions: read-out: inhibitory rate; for inhibition at 1 ppm: dosage 1 ppm; for inhibition at 5 ppm: dosage 5 ppm
Protocol: as §1, §2

black shank in potatoes = assay: Living crops in vivo protective activity, potatoes (root irrigation); conditions: Solanum tuberosum, read-out: efficacy against black shank in potatoes; for pest or weed control at 5 ppm: dosage 5 ppm; for pest or weed control at 10 ppm: dosage 10 ppm
Protocol: Root irrigation was carried out on the potatoes for tests according to the designed concentration of the agents. The dosage for each plant was 200 mL and was kept consistent (also for the control). The black shank bacteria were inoculated on the second day after the application. The results were investigated according to the disease condition.

[8] = system: fruit blotch in watermelons; assay: whole plant or invertebrate; conditions: read-out: efficacy against fruit blotch in watermelons
[9] = system: pathogenic bacteria causing bacterial angular leaf spot in cucumbers; assay: In vitro bactericidal activity, bacterial angular leaf spot in cucumbers; assay type: cell-based, pseudomonas; conditions: read-out: inhibitory rate; for inhibition at 1 ppm: dosage 1 ppm; for inhibition at 5 ppm: dosage 5 ppm
Protocol: as §1, §2

[10] = system: stem rot in sweet potatoes; assay: whole plant or invertebrate; conditions: read-out: efficacy against stem rot in sweet potatoes
[11] = system: soft rot in Chinese cabbages; assay: whole plant or invertebrate; conditions: 48 h, read-out: efficacy against soft rot in Chinese cabbages
[12] = system: pathogenic bacteria causing black rot in Chinese cabbages; assay: In vitro bactericidal activity, black rot in Chinese cabbages; assay type: cell-based, xanthomonas; conditions: Xanthomonas, read-out: inhibitory rate; for inhibition at 1 ppm: dosage 1 ppm; for inhibition at 5 ppm: dosage 5 ppm
Protocol: as §1, §2

[13] = system: pathogenic bacteria causing bacterial blight in rice; assay: whole plant or invertebrate; assay type: cell-based, xanthomonas; conditions: read-out: inhibitory rate

## COCCOC(=O)c1cn(C2CC2)c2cc(OC)ccc2c1=O [Compound 353]
Bacterial blight in rice
  pest or weed control at 5 ppm: ≥ 80%
  pest or weed control at 10 ppm: ≥ 90%
[1]
  inhibition at 1 ppm: ≥ 80%
  inhibition at 5 ppm: ≥ 90%
[2]
  inhibition at 1 ppm: ≥ 80%
  inhibition at 5 ppm: ≥ 90%
[3]
  inhibition at 1 ppm: ≥ 80%
  inhibition at 5 ppm: ≥ 90%
[4]
  inhibition at 1 ppm: ≥ 80%
  inhibition at 5 ppm: ≥ 90%
[5]
  inhibition at 1 ppm: ≥ 80%
  inhibition at 5 ppm: ≥ 90%
Cucumber seedlings
  safety for plant growth (discoloration, necrosis, wilt, malformation): safe for plant growth
[6]
  pest or weed control at 5 ppm: ≥ 90%
  pest or weed control at 10 ppm: ≥ 90%
[7]
  inhibition at 1 ppm: ≥ 80%
  inhibition at 5 ppm: ≥ 90%
Black shank in potatoes
  pest or weed control at 5 ppm: ≥ 80%
  pest or weed control at 10 ppm: ≥ 90%
[8]
  pest or weed control at 5 ppm: ≥ 90%
  pest or weed control at 10 ppm: ≥ 90%
[9]
  inhibition at 1 ppm: ≥ 80%
  inhibition at 5 ppm: ≥ 90%
[10]
  pest or weed control at 5 ppm: ≥ 90%
  pest or weed control at 10 ppm: ≥ 90%
[11]
  pest or weed control at 5 ppm: ≥ 80%
  pest or weed control at 10 ppm: ≥ 90%
[12]
  inhibition at 1 ppm: ≥ 80%
  inhibition at 5 ppm: ≥ 90%
[13]
  inhibition at 1 ppm: ≥ 80%
  inhibition at 5 ppm: ≥ 90%

## COCOC(=O)c1cn(C2CC2)c2ccc(F)cc2c1=O [Compound 1, methoxymethyl 1-cyclopropyl-6-fluoro-4-oxo-1,4-dihydroquinoline-3-carboxylate]
Bacterial blight in rice
  pest or weed control at 5 ppm: ≥ 80%
  pest or weed control at 10 ppm: ≥ 90%
[1]
  inhibition at 1 ppm: ≥ 80%
  inhibition at 5 ppm: ≥ 90%
[2]
  inhibition at 1 ppm: ≥ 80%
  inhibition at 5 ppm: ≥ 90%
[3]
  inhibition at 1 ppm: ≥ 80%
  inhibition at 5 ppm: ≥ 90%
[4]
  inhibition at 1 ppm: ≥ 80%
  inhibition at 5 ppm: ≥ 90%
[5]
  inhibition at 1 ppm: ≥ 80%
  inhibition at 5 ppm: ≥ 90%
Cucumber seedlings
  safety for plant growth (discoloration, necrosis, wilt, malformation): safe for plant growth
[6]
  pest or weed control at 5 ppm: ≥ 90%
  pest or weed control at 10 ppm: ≥ 90%
[7]
  inhibition at 1 ppm: ≥ 80%
  inhibition at 5 ppm: ≥ 90%
Black shank in potatoes
  pest or weed control at 5 ppm: ≥ 80%
  pest or weed control at 10 ppm: ≥ 90%
[8]
  pest or weed control at 5 ppm: ≥ 90%
  pest or weed control at 10 ppm: ≥ 90%
[9]
  inhibition at 1 ppm: ≥ 80%
  inhibition at 5 ppm: ≥ 90%
[10]
  pest or weed control at 5 ppm: ≥ 90%
  pest or weed control at 10 ppm: ≥ 90%
[11]
  pest or weed control at 5 ppm: ≥ 80%
  pest or weed control at 10 ppm: ≥ 90%
[12]
  inhibition at 1 ppm: ≥ 80%
  inhibition at 5 ppm: ≥ 90%
[13]
  inhibition at 1 ppm: ≥ 80%
  inhibition at 5 ppm: ≥ 90%

## O=C(OCCCO)c1cn(C2CC2)c2ccc(F)cc2c1=O [Compound 18]
Bacterial blight in rice
  pest or weed control at 5 ppm: ≥ 80%
  pest or weed control at 10 ppm: ≥ 90%
[1]
  inhibition at 1 ppm: ≥ 80%
  inhibition at 5 ppm: ≥ 90%
[2]
  inhibition at 1 ppm: ≥ 80%
  inhibition at 5 ppm: ≥ 90%
[3]
  inhibition at 1 ppm: ≥ 80%
  inhibition at 5 ppm: ≥ 90%
[4]
  inhibition at 1 ppm: ≥ 80%
  inhibition at 5 ppm: ≥ 90%
[5]
  inhibition at 1 ppm: ≥ 80%
  inhibition at 5 ppm: ≥ 90%
Cucumber seedlings
  safety for plant growth (discoloration, necrosis, wilt, malformation): safe for plant growth
[6]
  pest or weed control at 5 ppm: ≥ 90%
  pest or weed control at 10 ppm: ≥ 90%
[7]
  inhibition at 1 ppm: ≥ 80%
  inhibition at 5 ppm: ≥ 90%
Black shank in potatoes
  pest or weed control at 5 ppm: ≥ 80%
  pest or weed control at 10 ppm: ≥ 90%
[8]
  pest or weed control at 5 ppm: ≥ 90%
  pest or weed control at 10 ppm: ≥ 90%
[9]
  inhibition at 1 ppm: ≥ 80%
  inhibition at 5 ppm: ≥ 90%
[10]
  pest or weed control at 5 ppm: ≥ 90%
  pest or weed control at 10 ppm: ≥ 90%
[11]
  pest or weed control at 5 ppm: ≥ 80%
  pest or weed control at 10 ppm: ≥ 90%
[12]
  inhibition at 1 ppm: ≥ 80%
  inhibition at 5 ppm: ≥ 90%
[13]
  inhibition at 1 ppm: ≥ 80%
  inhibition at 5 ppm: ≥ 90%

## O=C(OCCO)c1cn(C2CC2)c2ccc(Cl)cc2c1=O [Compound 44]
Bacterial blight in rice
  pest or weed control at 5 ppm: ≥ 80%
  pest or weed control at 10 ppm: ≥ 90%
[1]
  inhibition at 1 ppm: ≥ 80%
  inhibition at 5 ppm: ≥ 90%
[2]
  inhibition at 1 ppm: ≥ 80%
  inhibition at 5 ppm: ≥ 90%
[3]
  inhibition at 1 ppm: ≥ 80%
  inhibition at 5 ppm: ≥ 90%
[4]
  inhibition at 1 ppm: ≥ 80%
  inhibition at 5 ppm: ≥ 90%
[5]
  inhibition at 1 ppm: ≥ 80%
  inhibition at 5 ppm: ≥ 90%
Cucumber seedlings
  safety for plant growth (discoloration, necrosis, wilt, malformation): safe for plant growth
[6]
  pest or weed control at 5 ppm: ≥ 90%
  pest or weed control at 10 ppm: ≥ 90%
[7]
  inhibition at 1 ppm: ≥ 80%
  inhibition at 5 ppm: ≥ 90%
Black shank in potatoes
  pest or weed control at 5 ppm: ≥ 80%
  pest or weed control at 10 ppm: ≥ 90%
[8]
  pest or weed control at 5 ppm: ≥ 90%
  pest or weed control at 10 ppm: ≥ 90%
[9]
  inhibition at 1 ppm: ≥ 80%
  inhibition at 5 ppm: ≥ 90%
[10]
  pest or weed control at 5 ppm: ≥ 90%
  pest or weed control at 10 ppm: ≥ 90%
[11]
  pest or weed control at 5 ppm: ≥ 80%
  pest or weed control at 10 ppm: ≥ 90%
[12]
  inhibition at 1 ppm: ≥ 80%
  inhibition at 5 ppm: ≥ 90%
[13]
  inhibition at 1 ppm: ≥ 80%
  inhibition at 5 ppm: ≥ 90%

## CCOCCOC(=O)c1cn(C2CC2)c2cc(SCC)c(F)cc2c1=O [Compound 397]
Bacterial blight in rice
  pest or weed control at 5 ppm: ≥ 90%
  pest or weed control at 10 ppm: ≥ 90%
[1]
  inhibition at 1 ppm: ≥ 90%
  inhibition at 5 ppm: ≥ 90%
[2]
  inhibition at 1 ppm: ≥ 90%
  inhibition at 5 ppm: ≥ 90%
[3]
  inhibition at 1 ppm: ≥ 90%
  inhibition at 5 ppm: ≥ 90%
[4]
  inhibition at 1 ppm: ≥ 90%
  inhibition at 5 ppm: ≥ 90%
[5]
  inhibition at 1 ppm: ≥ 80%
  inhibition at 5 ppm: ≥ 90%
Cucumber seedlings
  safety for plant growth (discoloration, necrosis, wilt, malformation): safe for plant growth
[6]
  pest or weed control at 5 ppm: ≥ 90%
  pest or weed control at 10 ppm: ≥ 90%
[7]
  inhibition at 1 ppm: ≥ 90%
  inhibition at 5 ppm: ≥ 90%
Black shank in potatoes
  pest or weed control at 5 ppm: ≥ 90%
  pest or weed control at 10 ppm: ≥ 90%
[8]
  pest or weed control at 5 ppm: ≥ 90%
  pest or weed control at 10 ppm: ≥ 90%
[9]
  inhibition at 1 ppm: ≥ 90%
  inhibition at 5 ppm: ≥ 90%
[10]
  pest or weed control at 5 ppm: ≥ 90%
  pest or weed control at 10 ppm: ≥ 90%
[11]
  pest or weed control at 5 ppm: ≥ 80%
  pest or weed control at 10 ppm: ≥ 90%
[12]
  inhibition at 1 ppm: ≥ 80%
  inhibition at 5 ppm: ≥ 90%
[13]
  inhibition at 1 ppm: ≥ 90%
  inhibition at 5 ppm: ≥ 90%
